Results as given in paper PMC4519236 (Bioorganic & medicinal chemistry, 2013).
“Also recorded” adds a separate entry of the source.

What was measured:
α4β2* nAChR [1] = molecular target: α4β2* nAChR (Homo sapiens, UniProt P17787+P43681); experiment: Electrophysiology, α4β2* nAChR expressed in Xenopus oocytes; format: cell-based; settings: 1 or 10 μM; co-applied at 1 μM with ACh; relative to ACh control
α4β2* nAChR [2] = molecular target: α4β2* nAChR (Rattus norvegicus, UniProt P09483+P12390); experiment: Radioligand binding assay, α4β2* nAChR
Sequence of α4β2* nAChR (Rattus norvegicus, UniProt P09483+P12390) (P09483 31-630): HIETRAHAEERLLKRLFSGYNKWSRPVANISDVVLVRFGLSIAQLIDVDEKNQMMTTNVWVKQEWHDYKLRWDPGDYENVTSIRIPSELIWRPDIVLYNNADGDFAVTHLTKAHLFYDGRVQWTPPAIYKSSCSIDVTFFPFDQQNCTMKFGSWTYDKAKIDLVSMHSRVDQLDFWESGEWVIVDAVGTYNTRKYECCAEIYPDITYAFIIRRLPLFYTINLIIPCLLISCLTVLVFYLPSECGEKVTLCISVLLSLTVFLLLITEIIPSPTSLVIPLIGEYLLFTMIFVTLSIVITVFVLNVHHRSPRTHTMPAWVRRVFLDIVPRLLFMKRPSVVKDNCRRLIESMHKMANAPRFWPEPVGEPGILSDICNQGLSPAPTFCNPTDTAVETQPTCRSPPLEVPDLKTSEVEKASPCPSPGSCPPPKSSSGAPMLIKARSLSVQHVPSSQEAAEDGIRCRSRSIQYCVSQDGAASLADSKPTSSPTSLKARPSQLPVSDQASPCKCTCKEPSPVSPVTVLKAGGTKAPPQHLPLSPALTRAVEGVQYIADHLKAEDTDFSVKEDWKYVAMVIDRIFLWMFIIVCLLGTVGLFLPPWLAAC
Sequence of α4β2* nAChR (Rattus norvegicus, UniProt P09483+P12390) (P12390 25-500): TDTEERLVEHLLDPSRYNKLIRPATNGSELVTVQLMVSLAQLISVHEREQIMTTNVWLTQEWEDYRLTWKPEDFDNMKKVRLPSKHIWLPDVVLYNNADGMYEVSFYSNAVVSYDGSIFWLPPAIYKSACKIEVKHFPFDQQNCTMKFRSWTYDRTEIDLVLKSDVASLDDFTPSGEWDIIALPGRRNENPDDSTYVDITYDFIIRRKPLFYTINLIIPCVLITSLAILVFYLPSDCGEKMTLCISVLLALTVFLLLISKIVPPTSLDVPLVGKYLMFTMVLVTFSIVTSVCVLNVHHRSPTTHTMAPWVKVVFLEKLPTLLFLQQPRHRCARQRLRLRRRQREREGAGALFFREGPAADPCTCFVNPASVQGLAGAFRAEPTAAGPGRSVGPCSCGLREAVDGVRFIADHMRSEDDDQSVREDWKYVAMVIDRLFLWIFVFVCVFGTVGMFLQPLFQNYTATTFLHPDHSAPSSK

muscle subtype nAChR = muscle subtype nAChR (Homo sapiens, UniProt P02708+Q07001); experiment: Electrophysiology, muscle subtype nAChR expressed in Xenopus oocytes; format: cell-based; settings: 1 or 10 μM; co-applied at 1 μM with ACh; relative to ACh control
Sequence of muscle subtype nAChR (P02708 21-457): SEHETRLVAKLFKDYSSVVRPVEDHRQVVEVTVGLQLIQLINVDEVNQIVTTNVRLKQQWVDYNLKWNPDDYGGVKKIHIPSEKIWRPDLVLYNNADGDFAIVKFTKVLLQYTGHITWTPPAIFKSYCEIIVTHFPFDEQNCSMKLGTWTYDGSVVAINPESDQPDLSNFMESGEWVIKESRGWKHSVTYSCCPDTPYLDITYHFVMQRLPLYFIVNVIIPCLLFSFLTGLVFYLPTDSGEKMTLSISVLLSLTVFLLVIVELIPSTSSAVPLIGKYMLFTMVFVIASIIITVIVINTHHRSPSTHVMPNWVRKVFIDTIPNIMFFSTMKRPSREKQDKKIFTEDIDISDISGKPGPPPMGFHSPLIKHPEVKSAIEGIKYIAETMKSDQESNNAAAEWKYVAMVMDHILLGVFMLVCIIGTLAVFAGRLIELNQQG
Sequence of muscle subtype nAChR (P11230 24-501 partner): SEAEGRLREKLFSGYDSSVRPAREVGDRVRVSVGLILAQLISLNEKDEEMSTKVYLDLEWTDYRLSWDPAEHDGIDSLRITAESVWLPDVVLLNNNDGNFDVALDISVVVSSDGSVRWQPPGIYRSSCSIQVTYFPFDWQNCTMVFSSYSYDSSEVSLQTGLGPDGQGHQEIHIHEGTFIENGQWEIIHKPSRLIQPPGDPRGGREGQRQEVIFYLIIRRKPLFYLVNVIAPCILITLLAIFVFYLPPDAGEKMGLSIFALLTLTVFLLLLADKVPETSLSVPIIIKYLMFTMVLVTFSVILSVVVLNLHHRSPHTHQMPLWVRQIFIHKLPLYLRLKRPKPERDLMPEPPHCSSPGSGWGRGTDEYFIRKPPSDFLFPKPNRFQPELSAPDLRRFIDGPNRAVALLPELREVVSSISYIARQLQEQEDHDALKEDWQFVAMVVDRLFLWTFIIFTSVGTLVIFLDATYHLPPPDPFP
Sequence of muscle subtype nAChR (Q07001 22-517): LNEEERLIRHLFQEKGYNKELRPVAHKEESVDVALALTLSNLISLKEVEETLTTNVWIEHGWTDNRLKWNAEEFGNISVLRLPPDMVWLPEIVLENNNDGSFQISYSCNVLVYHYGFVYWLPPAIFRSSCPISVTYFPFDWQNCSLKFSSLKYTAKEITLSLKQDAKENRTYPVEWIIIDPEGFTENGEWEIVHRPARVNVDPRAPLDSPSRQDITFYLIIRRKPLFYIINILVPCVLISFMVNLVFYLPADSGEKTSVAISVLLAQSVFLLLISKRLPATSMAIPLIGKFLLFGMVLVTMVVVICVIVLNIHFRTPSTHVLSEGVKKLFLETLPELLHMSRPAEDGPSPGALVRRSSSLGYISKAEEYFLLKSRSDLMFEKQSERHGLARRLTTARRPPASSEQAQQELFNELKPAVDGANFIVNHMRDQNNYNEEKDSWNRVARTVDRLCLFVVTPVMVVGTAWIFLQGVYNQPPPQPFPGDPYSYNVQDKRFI

α7* nAChR = α7* nAChR (Rattus norvegicus, UniProt Q05941); experiment: Radioligand binding assay, α7* nAChR
Sequence of α7* nAChR (Q05941 23-502): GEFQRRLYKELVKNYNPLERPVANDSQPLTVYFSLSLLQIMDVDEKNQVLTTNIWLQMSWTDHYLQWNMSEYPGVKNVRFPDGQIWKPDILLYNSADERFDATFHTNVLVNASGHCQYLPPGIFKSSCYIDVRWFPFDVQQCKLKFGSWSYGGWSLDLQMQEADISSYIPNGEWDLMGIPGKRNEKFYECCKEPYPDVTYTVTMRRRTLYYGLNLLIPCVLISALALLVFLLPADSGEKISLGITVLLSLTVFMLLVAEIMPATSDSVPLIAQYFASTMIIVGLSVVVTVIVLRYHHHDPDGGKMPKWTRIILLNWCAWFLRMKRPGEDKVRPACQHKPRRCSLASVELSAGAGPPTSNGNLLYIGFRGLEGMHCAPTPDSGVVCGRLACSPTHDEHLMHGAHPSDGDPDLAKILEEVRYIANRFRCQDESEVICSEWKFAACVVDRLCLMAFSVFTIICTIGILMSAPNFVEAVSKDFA

mouse model = settings: ref [26]; cited from earlier work
α3β4* nAChR [3] = experiment: Radioligand binding assay, α3β4* nAChR
(α1)2β1γδ nAChR = (α1)2β1γδ nAChR (Tetronarce californica, UniProt P02710+P02714+P02718); experiment: Radioligand binding assay, muscle type
α3β4* nAChR [4] = molecular target: α3β4* nAChR (Homo sapiens, UniProt P30926+P32297); experiment: Electrophysiology, α3β4* nAChR expressed in Xenopus oocytes; format: cell-based; settings: 1 or 10 μM; co-applied at 1 μM with ACh; relative to ACh control
Sequence of α3β4* nAChR (Homo sapiens, UniProt P30926+P32297) (P32297 32-505): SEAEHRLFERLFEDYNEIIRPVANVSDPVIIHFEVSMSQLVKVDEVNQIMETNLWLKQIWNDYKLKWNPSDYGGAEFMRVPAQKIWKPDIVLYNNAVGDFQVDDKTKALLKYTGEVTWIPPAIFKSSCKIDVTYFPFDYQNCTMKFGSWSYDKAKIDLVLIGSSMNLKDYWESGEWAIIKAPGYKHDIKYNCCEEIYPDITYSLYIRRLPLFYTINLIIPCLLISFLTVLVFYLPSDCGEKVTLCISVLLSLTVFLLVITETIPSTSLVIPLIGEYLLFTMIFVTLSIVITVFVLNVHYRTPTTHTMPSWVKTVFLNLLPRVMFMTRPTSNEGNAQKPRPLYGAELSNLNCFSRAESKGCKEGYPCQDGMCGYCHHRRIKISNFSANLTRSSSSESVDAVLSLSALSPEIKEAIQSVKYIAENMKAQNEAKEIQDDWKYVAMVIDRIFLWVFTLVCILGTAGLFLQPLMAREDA
Sequence of α3β4* nAChR (Homo sapiens, UniProt P30926+P32297) (P30926 22-498): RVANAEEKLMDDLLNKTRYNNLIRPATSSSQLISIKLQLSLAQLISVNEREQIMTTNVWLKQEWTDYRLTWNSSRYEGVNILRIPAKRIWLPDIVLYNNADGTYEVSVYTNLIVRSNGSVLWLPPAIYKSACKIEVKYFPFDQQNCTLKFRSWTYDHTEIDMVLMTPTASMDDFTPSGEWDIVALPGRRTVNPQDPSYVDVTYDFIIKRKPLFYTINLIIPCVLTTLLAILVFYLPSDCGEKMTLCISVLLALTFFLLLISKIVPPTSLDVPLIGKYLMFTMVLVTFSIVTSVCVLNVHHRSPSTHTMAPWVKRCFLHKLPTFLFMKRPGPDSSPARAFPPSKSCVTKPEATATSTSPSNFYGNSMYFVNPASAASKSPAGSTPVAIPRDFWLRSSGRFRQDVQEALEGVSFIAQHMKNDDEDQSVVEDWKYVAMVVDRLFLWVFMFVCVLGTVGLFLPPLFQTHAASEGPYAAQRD

[5] = relative to vinyl spacer analog 26

Sequence of α4β2* nAChR (Homo sapiens, UniProt P17787+P43681) (P43681 29-627 limits assumed): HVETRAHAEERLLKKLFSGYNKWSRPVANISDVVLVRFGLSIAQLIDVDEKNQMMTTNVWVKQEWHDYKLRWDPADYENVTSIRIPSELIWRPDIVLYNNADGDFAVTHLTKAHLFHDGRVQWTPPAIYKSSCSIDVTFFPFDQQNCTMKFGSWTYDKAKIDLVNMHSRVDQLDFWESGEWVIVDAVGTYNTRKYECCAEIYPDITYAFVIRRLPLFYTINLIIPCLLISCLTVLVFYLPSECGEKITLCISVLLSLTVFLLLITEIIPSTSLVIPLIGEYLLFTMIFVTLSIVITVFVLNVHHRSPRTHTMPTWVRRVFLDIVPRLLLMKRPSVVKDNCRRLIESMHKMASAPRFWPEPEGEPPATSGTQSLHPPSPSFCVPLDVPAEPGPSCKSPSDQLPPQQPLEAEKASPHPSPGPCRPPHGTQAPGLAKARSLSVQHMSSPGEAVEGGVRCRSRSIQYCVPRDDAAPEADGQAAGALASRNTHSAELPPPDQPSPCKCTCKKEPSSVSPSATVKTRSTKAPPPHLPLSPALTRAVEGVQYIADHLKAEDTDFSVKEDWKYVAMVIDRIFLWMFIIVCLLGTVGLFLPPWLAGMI
Sequence of α4β2* nAChR (Homo sapiens, UniProt P17787+P43681) (P17787 26-502): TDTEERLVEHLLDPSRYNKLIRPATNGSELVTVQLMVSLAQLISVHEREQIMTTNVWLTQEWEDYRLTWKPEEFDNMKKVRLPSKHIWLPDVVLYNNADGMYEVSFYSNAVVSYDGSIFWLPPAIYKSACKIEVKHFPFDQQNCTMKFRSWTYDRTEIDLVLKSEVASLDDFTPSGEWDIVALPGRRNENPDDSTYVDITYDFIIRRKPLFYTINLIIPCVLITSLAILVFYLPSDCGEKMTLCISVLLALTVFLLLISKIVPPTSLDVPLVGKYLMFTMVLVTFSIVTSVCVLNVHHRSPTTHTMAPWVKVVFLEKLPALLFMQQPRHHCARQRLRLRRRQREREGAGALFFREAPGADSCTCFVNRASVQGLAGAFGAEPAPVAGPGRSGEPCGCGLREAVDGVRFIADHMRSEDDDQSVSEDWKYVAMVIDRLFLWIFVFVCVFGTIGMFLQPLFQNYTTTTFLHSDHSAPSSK

O=C(c1ccc(-c2cccnc2)cc1)N1C[C@@H]2CNC[C@@H](C2)C1 [Compound 52, (1R,5S)-3,7-diazabicyclo[3.3.1]nonan-3-yl(4-(pyridin-3-yl)phenyl)methanone]
functional effect at α4β2* (α4β2* nAChR [1]): strongest antagonistic effects

O=C(c1csc(-c2ccncc2)n1)N1C[C@@H]2CNC[C@@H](C2)C1 [Compound 55, (1R,5S)-3,7-diazabicyclo[3.3.1]nonan-3-yl(2-(pyridine-4-yl)thiazol-4-yl)methanone]
affinity for α4β2* / nAChRs tested, in words (α4β2* nAChR [2]): did not show any affinity

O=C(C#Cc1ccc2c(c1)OCO2)N1C[C@@H]2CNC[C@@H](C2)C1 [Compound 50, 1-((1R,5S)-3,7-diazabicyclo[3.3.1]nonan-3-yl)-3-(benzo[d][1,3]dioxol-5-yl)prop-2-yn-1-one]
higher affinity for α4β2* (α4β2* nAChR [2]; [5]): ~10 fold
functional effect at α4β2* (α4β2* nAChR [1]): strongest antagonistic effects

COc1ccc(C#CC(=O)N2C[C@@H]3CNC[C@@H](C3)C2)cc1OC [Compound 46, 1-((1R,5S)-3,7-diazabicyclo[3.3.1]nonan-3-yl)-3-(3,4-dimethoxyphenyl)prop-2-yn-1-one]
higher affinity for α4β2* (α4β2* nAChR [2]; [5]): ~10 fold
functional effect at muscle subtype (muscle subtype nAChR): some antagonistic effect
functional effect at α4β2* (α4β2* nAChR [1]): strongest antagonistic effects

O=C(Cc1c(F)c(F)c(F)c(F)c1F)N1C[C@@H]2CNC[C@@H](C2)C1 [Compound 34, 1-((1R,5S)-3,7-diazabicyclo[3.3.1]nonan-3-yl)-2-(2,3,4,5,6-pentafluorophenyl)ethanone]
affinity for α4β2* / nAChRs tested, in words (α4β2* nAChR [2]): failed to interact

O=c1c(-c2ccccc2)ccc2n1C[C@@H]1CNC[C@H]2C1 [Compound 4, 9-phenyl-1,2,3,4,5,6-hexahydro-1,5-methano-pyridino[1,2-a]diazocin-8-one]
α4β2* affinity lower than cytisine 1 (α4β2* nAChR [2]; relative to cytisine 1): about 1000 times

O=C(CCc1ccccc1)N1C[C@@H]2CNC[C@@H](C2)C1 [Compound 32, 1-((1R,5S)-3,7-diazabicyclo[3.3.1]nonan-3-yl)-3-phenylpropan-1-one]
affinity for α7* nAChR, in words (α7* nAChR): no affinity

CS(=O)(=O)c1ccc(CC(=O)N2C[C@@H]3CNC[C@@H](C3)C2)cc1 [Compound 35, 1-((1R,5S)-3,7-diazabicyclo[3.3.1]nonan-3-yl)-2-(4-(methylsulfonyl)phenyl)ethanone]
in vivo activity in a mouse model (mouse model): antidepressive effect
functional effect at α4β2* (α4β2* nAChR [1]): strongest antagonistic effects

COc1ccc(C#CC(=O)N2C[C@@H]3CNC[C@@H](C3)C2)cc1Cl [Compound 47, 1-((1R,5S)-3,7-diazabicyclo[3.3.1]nonan-3-yl)-3-(3-chloro-4-methoxyphenyl)prop-2-yn-1-one]
functional effect at α4β2* (α4β2* nAChR [1]): strongest antagonistic effects

O=C(/C=C/c1ccccc1)N1C[C@@H]2CNC[C@@H](C2)C1 [Compound 16, (E)-1-((1R,5S)-3,7-diazabicyclo[3.3.1]nonan-3-yl)-3-phenylprop-2-en-1-one]
affinity for α3β4* nAChR, in words (α3β4* nAChR [3]): lacked affinity
affinity for (α1)2β1γδ nAChR, in words ((α1)2β1γδ nAChR): lacked affinity
affinity for α7* nAChR, in words (α7* nAChR): lacked affinity

O=C([C@@H]1C[C@H]1c1ccccc1)N1C[C@@H]2CNC[C@@H](C2)C1 [Compound 15, (1R,5S)-3,7-diazabicyclo[3.3.1]nonan-3-yl((1R,2R)-2-phenylcyclopropyl)methanone]
Ki (α4β2* nAChR [2]): ~1 nM
functional effect at α4β2* (α4β2* nAChR [1]): strongest antagonistic effects
functional effect at α3β4* (α3β4* nAChR [4]): agonist; also recorded: most potent agonist

O=C(Cc1ccccc1)N1C[C@@H]2CNC[C@@H](C2)C1 [Compound 30, 1-((1R,5S)-3,7-diazabicyclo[3.3.1]nonan-3-yl)-2-phenylethanone]
increase of α4β2* affinity (α4β2* nAChR [2]; relative to compound 29): about 8 fold

O=C(c1ccc(-c2ccncc2)cc1)N1C[C@@H]2CNC[C@@H](C2)C1 [Compound 53, (1R,5S)-3,7-diazabicyclo[3.3.1]nonan-3-yl(4-(pyridin-4-yl)phenyl)methanone]
functional effect at α4β2* (α4β2* nAChR [1]): strongest antagonistic effects

O=C(C#Cc1ccccc1)N1C[C@@H]2CNC[C@@H](C2)C1 [Compound 42]
higher affinity for α4β2* (α4β2* nAChR [2]; relative to analogs 32 and 16): 5 times

O=C(c1ccc(-n2ccnc2)cc1)N1C[C@@H]2CNC[C@@H](C2)C1 [Compound 54, (4-(1H-imidazol-1-yl)phenyl)((1R,5S)-3,7-diazabicyclo[3.3.1]nonan-3-yl)methanone]
functional effect at α4β2* (α4β2* nAChR [1]): strongest antagonistic effects
